The record followed here is US10624891B2, “Method of diagnosing and treating skin necroptosis disease comprising RIP3-MLKL pathway blocker” (Ajou University Industry-Academic Cooperation Foundation, priority 2015, dated 2020).

Each structure is given as a SMILES string. Where two headings read alike, the source gives them in different places. Where a SMILES comes first, the peptide text is derived from it. The star is where a group is joined. Cbz = O=C(OCc1ccccc1)*; CH2F = FC*

In one data set the test system is SNP-induced cell death. Put plainly: SNP-induced cell death with ROS scavenger or MAPK pathway inhibitors. It counts as cell-based. Particulars: pretreatment or treatment with inhibitor. From the text:
However, as shown in FIGS. 11A and 11B, in cells pretreated with NAC having ROS scavenging ability, SNP-induced cell death was inhibited similarly in Nec-1 treated group (FIG. 11A). From this, it was confirmed again that ROS is associated with SNP-induced cell death. Further, SNP-induced cell death was inhibited by treatment with JNK inhibitor […] (SP), p38 inhibitor sB202190 (SB), and MEK, upstream of ERK, inhibitor PD98059 (PD) (FIG. 11B).

In another data set the test system is HaCaT cells. Put plainly: SNP-induced cell death in HaCaT cells, MTT assay and phase-contrast microscopy. The note with it: for SNP-induced cell death (cell viability, MTT assay): pretreated with 80 μM of Nec-1 and/or 20 μM of zVAD for 1 hour, followed by SNP. It is filed as cell-based, human. Here is the method:
Whether SNP-induced cell death is improved by […] necrostatin-1 (Nec-1), and combination treatment of zVAD and Nec-1 was examined in HaCaT cells using MTT assay and phase-contrast microscopy. Cells were pretreated with 80 μM of Nec-1 and/or 20 μM of zVAD for 1 hour, followed by SNP treatment.
On the technique in general: Tetrazolium dyes change colour on reduction, which living cells bring about.

The subject of data set [1] is RIP3 overexpressing cells. Put plainly: MLKL phosphorylation inhibition in RIP3 overexpressing cells. It counts as cell-based, human. An excerpt:
As shown in FIGS. 17A and 17B, the basal phosphorylation of MLKL in RIP3 overexpressing cells, and SNP-induced p-MLKL were eliminated by an RIP3 inhibitor dabrafenib (FIG. 17A).

The next data set relates to HaCaT and HEKn. Put plainly: TNFα-induced necroptosis stimuli (TCZ or TSZ) in keratinocytes. It counts as cell-based, human. Particulars: TNFα + zVAD + cyclohexamide or SMAC mimetic. From the text: The immortal human keratinocyte line HaCaT and primary human epidermal keratinocyte isolated from neonatal foreskin (HEKn) responded to prototypical necroptosis stimuli induced by TNFα (TNFα[…]+zVAD+cyclohexamide or SMAC mimetic; also referred to herein as TCZ or TSZ). […] Additionally, from a knockout model, it was confirmed whether RIP3 and RIP1 affect TNF-induced cell death via necroptosis.

For the molecule `Oc1ccc(-c2nc(-c3ccncc3)c(-c3ccc(F)cc3)[nH]2)cc1` [sB202190], the SNP-induced cell death entry with SNP-induced cell death is recorded as “inhibited”. The same measure, in the same setting: the value for `O=C1c2ccccc2-c2n[nH]c3cccc1c23` [SP420119] was “inhibited”. `CN1C(=O)C(Cc2c[nH]c3ccccc23)NC1=S` (stereo not drawn) [Nec-1, necrostatin-1]: in the data set on SNP-induced cell death, the SNP-induced cell death entry was “inhibited”. In the data set on HEKn cells (HEKn cells), the “protection from acute SNP cytotoxicity / SNP-induced cell death” value is reported as “protected HEKn cells from acute SNP cytotoxicity more effectively than zVAD”. In addition, in the data set with HaCaT cells, the “SNP-induced cell death (phase-contrast microscopy and Annexin-V staining)” value is listed as “inhibited”; the “SNP-induced cell death (cell viability, MTT assay)” value is reported as “reduced”. For the molecule `CC(=O)N[C@@H](CS)C(=O)O` [NAC], in the data set with SNP-induced cell death, the SNP-induced cell death entry is reported as “inhibited”. Regarding `CC(C)(C)c1nc(-c2cccc(NS(=O)(=O)c3c(F)cccc3F)c2F)c(-c2ccnc(N)n2)s1` [dabrafenib], the “SNP-induced p-MLKL” value in data set [1] (SNP treated) is given as “eliminated”. The “basal phosphorylation of MLKL” value in data set [1] (no SNP) is recorded as “eliminated”. Besides, in the data set on HEKn cells, the “protection from acute SNP cytotoxicity / SNP-induced cell death” value was “protected HEKn cells from acute SNP cytotoxicity more effectively than zVAD”. On to `COc1cccc(-c2cc(=O)c3ccccc3o2)c1N` [PD98059], for which, in the data set with SNP-induced cell death, the SNP-induced cell death result is listed as “inhibited”. `COc1nccnc1NS(=O)(=O)c1ccc(NC(=O)/C=C/c2ccc([N+](=O)[O-])s2)cc1` [NSA, necrosulfonamide]: in the data set with HEKn cells (HEKn cells), the “protection from acute SNP cytotoxicity / SNP-induced cell death” value is reported as “protected HEKn cells from acute SNP cytotoxicity more effectively than zVAD”. Consider `CC(NC(=O)C(NC(=O)OCc1ccccc1)C(C)C)C(=O)NC(CC(=O)O)C(=O)CF` (stereo not drawn) [zVAD] (Cbz-Val-Ala-Asp-CH2F; configuration not given here), for which, in the data set with HaCaT and HEKn, the TNF-induced cell death entry is “did not prevent”; the “caspase-3 and PARP processing” value is on record as “completely blocked”. The “SNP-induced cell death (cell viability, MTT assay)” value in the data set on HaCaT cells is given as “reduced”.
